In assay [1] the test system is OPM2 or RPMI-8226 target cells. The assay is described as follows: Cytolytic activity of anti-BCMA CAR-T cells co-cultured with target cells +/- LY3039478 (IncuCyte). It counts as cell-based, human. From the text:
In this study, to generate anti-BCMA CAR-expressing T cells, CD4+ and CD8+ T cells were isolated by immunoaffinity-based enrichment from leukapheresis samples from two healthy donor subjects and one myeloma patient. Isolated T cells were activated and transduced with a viral vector encoding an anti-BCMA CAR. The CAR contained an scFv antigen-binding domain specific for BCMA having a VH domain and a VL domain with amino acid sequences set forth in SEQ ID NOS: 24 and 25, respectively, a spacer, a spacer having an amino acid sequence set forth in SEQ ID NO:31, a CD28 transmembrane region, a 4-1BB costimulatory signaling region and a CD3-zeta derived intracellular signaling domain. The nucleic acid construct encoding the CAR also included a truncated receptor sequence for use as a transduction marker, separated from the CAR sequence by a self-cleaving T2A sequence.
Anti-BCMA CAR-T cells generated as described in this Example above were cultured at 37° C. with either OPM2 or RPMI-8226 target cells at an effector to target (E:T) ratio of 0.3:1. The target cells were labeled with NucLight Red (NLR), to permit tracking of target cells by microscopy. Cultures were incubated in the absence of LY3039478 or in the presence of LY3039478 at concentrations of 0.1 nM, 1 nM, 10 nM, 100 nM, 1000 nM, 10000 nM or 100000 nM (the range covering the estimated human pharmacokinetic range is shown by the boxes in FIGS. 3A-3D). As a control, target cells were incubated with LY3039478 but without culture with CAR-T cells. Cytolytic activity was assessed by measuring the loss of viable target cells after about 150 hours, as determined by red fluorescent signal (using the IncuCyte® Live Cell Analysis System, Essen Bioscience). The area under the curve for killing observed during the culture period (˜150 hours) was determined. Percent lysis (% killing) was determined by normalizing the AUC for killing to cultures incubated without the inhibitor.

A further assay relates to OPM2 target cells. Nature of the assay: Similar study: concentration dependence of cytokine production by anti-BCMA CAR-T cells. Conditions: Homo sapiens, OPM-2; OPM2, one exemplary donor, IFN-gamma (FIG. 3E); read-out: increasing cytokine production by anti-BCMA CAR-T cells, IC50. It is filed as cell-based. Here is the method: The production of cytokines by anti-BCMA CAR-T cells in the presence or absence of LY3039478 was assessed by monitoring cytokine levels in the supernatants of co-cultures of CAR-T cells with BCMA-expressing target cells. CAR-T cells generated as described in this Example above were cultured with either OPM2 or RPMI-8226 target cells in the absence of LY3039478 or in the presence of LY3039478 at concentrations of 0.1 nM, 1 nM, 10 nM, 100 nM, 1000 nM, 10000 nM or 100000 nM (the range covering the estimated human pharmacokinetic range is shown by the boxes in FIGS. 3A-3D). Culture supernatants were harvested after 24 hours, and IFNγ and IL-2 were measured from the culture supernatants.
A similar study was carried out to further assess the effects of different concentrations of LY3039478, including concentrations within the estimated Cmax/Cmin for the inhibitor, on the ability of anti-BCMA CAR-T cells generated as described in this Example 2 above to produce cytokines following co-culture with OPM2 target cells.

The test system of assay [2] is RPMI-8226, OPM2, or MM1.S. Nature of the assay: Re-challenge of chronically stimulated anti-BCMA CAR+ T cells with target cells +/- LY3039478. It is filed as cell-based, human. Here is the method:
The effect of a gamma secretase inhibitor compound, LY3039478, on the cytotoxicity of anti-BCMA CAR+ T cells after long-term CAR-specific stimulation was assessed. Anti-BCMA CAR+ T cell compositions, generated as described in Example 2 containing anti-BCMA CAR-expressing CD4+ and CD8+ T cells, were incubated with 50 μg/mL BCMA-Fc conjugated beads for 7 days, under conditions designed to functionally exhaust the CAR T cells.
The CAR-T cells then were re-challenged with antigen-expressing target cells in the presence or absence of LY3039478. […] To assess cytolytic activity, the target cells were labeled with NucLight Red (NLR) to permit tracking by fluorescent microscopy. Killing activity was assessed by measuring the loss of viable target cells over time, as determined by loss of fluorescent signal over time by kinetic fluorescence microscopy (using the INCUCYTE® Live Cell Analysis System, Essen Bioscience). Target fluorescence was monitored over time and was normalized to target cell count.
A killing index was determined as the inverse of the area under the curve (AUC) for target fluorescence over time, and was normalized relative to DMSO vehicle control. […]

With `C[C@H](NC(=O)CCC(F)(F)F)C(=O)N[C@@H]1C(=O)N(CCO)c2ncccc2-c2ccccc21` [LY3039478, 4,4,4-trifluoro-N-[(1S)-2-[[(7S)-5-(2-hydroxyethyl)-6-oxo-7H-pyrido[2,3-d][3]benzazepin-7-yl]amino]-1-methyl-2-oxo-ethyl]butanamide], the “cytolytic activity of anti-BCMA CAR T cells (% killing)” value in assay [1] (0.1 nM to 100000 nM, E:T 0.3:1, about 150 hours, myeloma patient-derived CAR-T, OPM2 and RPMI-8226) was “increased the cytolytic activity”. In assay [1] (100 μM LY3039478), the “detrimental effects on CAR T cell function” value is recorded as “No detrimental effects”. For the same molecule, the CAR-T function result in assay [1] (CAR-T cells derived from the other donors) is on record as “increase in CAR-T function”. Moreover, in assay [1] (LY3039478 alone without CAR-T cells), the target survival entry is reported as “No differences”. In addition, in the assay with OPM2 target cells, the IC50 lay in the range of 100 to 250 pM. In addition, the “function of chronically stimulated anti-BCMA CAR-expressing T cells to produce cytokines (TNF-alpha, IFN-gamma, IL-2)” value in assay [2] (1 μM LY3039478, 24 hours, E:T 0.3:1 and 1:1) is given as “improved function”. Besides, the “cytolytic activity of chronically stimulated anti-BCMA CAR+ T cells” value in assay [2] (1 μM LY3039478 vs DMSO, E:T 0.3:1) was “improved cytolytic activity”.

The IC50 is the concentration that gives 50% inhibition.

The record behind these values is patent publication US12193994B2, “Combination of a cell therapy and a gamma secretase inhibitor” (Juno Therapeutics, Inc., priority 2017, dated 2025).
